Data: ChEMBL document CHEMBL1212836, “Pyridazinopsoralens of wide chemotherapeutic interest” (Bioorg Med Chem, 2010)
Active and inactive are the calls of the source. The rule behind the calls is not given here.

What was measured:
Nucleic Acid [1] = assay: Binding affinity to Salmon testes DNA assessed as drug-DNA complex formation at drug/DNA ratio 0.02 to 0.08 by linear flow dichroism method; assay type: nucleic-acid assay; settings: Salmonidae
[2] = target: DNA topoisomerase 2-alpha (Homo sapiens) (UniProt P11388); assay: Inhibition of human recombinant topoisomerase 2alpha-mediated relaxation of supercoiled pBR322 DNA after 60 mins by agarose gel electrophoresis
Chain of DNA topoisomerase 2-alpha (Homo sapiens) (P11388 whole entry): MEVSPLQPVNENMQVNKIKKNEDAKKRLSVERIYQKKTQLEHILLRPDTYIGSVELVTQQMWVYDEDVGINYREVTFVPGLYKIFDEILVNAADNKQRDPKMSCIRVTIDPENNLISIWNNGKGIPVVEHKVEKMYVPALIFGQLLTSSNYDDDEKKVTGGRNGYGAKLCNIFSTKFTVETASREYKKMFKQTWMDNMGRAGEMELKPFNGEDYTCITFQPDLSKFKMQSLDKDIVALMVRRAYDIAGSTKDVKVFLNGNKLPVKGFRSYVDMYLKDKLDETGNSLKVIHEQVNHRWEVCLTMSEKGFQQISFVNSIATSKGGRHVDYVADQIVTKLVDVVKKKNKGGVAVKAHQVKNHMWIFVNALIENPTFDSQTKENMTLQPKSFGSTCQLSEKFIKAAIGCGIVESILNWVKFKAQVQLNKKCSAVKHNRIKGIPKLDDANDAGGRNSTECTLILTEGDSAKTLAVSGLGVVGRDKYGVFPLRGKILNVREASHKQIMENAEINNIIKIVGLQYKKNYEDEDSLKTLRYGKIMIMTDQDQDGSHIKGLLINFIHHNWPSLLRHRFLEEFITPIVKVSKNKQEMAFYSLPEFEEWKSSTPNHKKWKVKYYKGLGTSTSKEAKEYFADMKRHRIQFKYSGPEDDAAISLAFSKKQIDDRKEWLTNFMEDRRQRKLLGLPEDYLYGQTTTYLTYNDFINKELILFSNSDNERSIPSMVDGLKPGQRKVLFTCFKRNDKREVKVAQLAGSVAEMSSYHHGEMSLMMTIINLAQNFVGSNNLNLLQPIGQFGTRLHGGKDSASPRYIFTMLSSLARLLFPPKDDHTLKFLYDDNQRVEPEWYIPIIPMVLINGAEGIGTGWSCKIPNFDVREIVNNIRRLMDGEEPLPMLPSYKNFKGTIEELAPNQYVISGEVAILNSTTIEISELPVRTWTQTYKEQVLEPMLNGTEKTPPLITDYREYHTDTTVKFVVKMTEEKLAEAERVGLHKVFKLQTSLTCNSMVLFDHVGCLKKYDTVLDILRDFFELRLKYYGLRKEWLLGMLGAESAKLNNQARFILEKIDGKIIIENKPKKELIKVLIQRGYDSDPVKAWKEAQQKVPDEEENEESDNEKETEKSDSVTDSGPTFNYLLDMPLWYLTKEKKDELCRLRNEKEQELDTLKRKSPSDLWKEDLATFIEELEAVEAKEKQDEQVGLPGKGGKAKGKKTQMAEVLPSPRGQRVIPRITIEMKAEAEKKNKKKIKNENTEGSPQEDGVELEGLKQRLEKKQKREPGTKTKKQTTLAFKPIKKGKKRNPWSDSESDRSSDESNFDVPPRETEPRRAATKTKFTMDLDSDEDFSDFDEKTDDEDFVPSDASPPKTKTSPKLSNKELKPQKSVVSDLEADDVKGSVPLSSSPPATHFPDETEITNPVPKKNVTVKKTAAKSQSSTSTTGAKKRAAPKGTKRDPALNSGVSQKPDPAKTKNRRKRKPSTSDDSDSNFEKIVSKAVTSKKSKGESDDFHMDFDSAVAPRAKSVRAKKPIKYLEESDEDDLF

HL-60 [3] = assay: Cytotoxicity against human HL60 cells treated under dark condition after 24 hrs by trypan blue assay; assay type: functional, cell-based; settings: HL-60, 24 h
HL-60 [4] = assay: Cytotoxicity against human HL60 cells treated under dark condition after 72 hrs by trypan blue assay; assay type: functional, cell-based; settings: HL-60, 72 h
HL-60 [5] = assay: Cytotoxicity against human HL60 cells after 24 hrs by trypan blue assay in presence of 0.789 J cm-2 of UVA light; assay type: functional, cell-based; settings: HL-60, light or radiation study
Nucleic Acid [6] = assay: Induction of Escherichia coli supercoiled pBR322 DNA cleavage at up to 200 uM after 30 mins by gel electrophoresis; assay type: nucleic-acid assay
HeLa [7] = assay: Cytotoxicity against human HeLa cells after 24 hrs by trypan blue assay in presence of 0.789 J cm-2 of UVA light; assay type: functional, cell-based; settings: light or radiation study
HeLa [8] = assay: Cytotoxicity against human HeLa cells treated under dark condition after 24 hrs by trypan blue assay; assay type: functional, cell-based
Nucleic Acid [9] = assay: Induction of Escherichia coli supercoiled pBR322 DNA cleavage at 50 uM after 30 mins by gel electrophoresis; assay type: nucleic-acid assay
Nucleic Acid [10] = assay: Stabilization of supercoiled pBR322 DNA-human recombinant topoisomerase 2 complex assessed as linear DNA formation at 8 uM after 60 mins; assay type: nucleic-acid assay; settings: Escherichia coli
Nucleic Acid [11] = assay: Induction of Escherichia coli supercoiled pBR322 DNA cleavage at 5 uM after 30 mins by gel electrophoresis; assay type: nucleic-acid assay
Nucleic Acid [12] = assay: Stabilization of supercoiled pBR322 DNA-human recombinant topoisomerase 2 complex assessed as linear DNA formation at 5 to 50 uM after 60 mins; assay type: nucleic-acid assay; settings: Escherichia coli

Row | Activity (Nucleic Acid [1]) | Activity [2] | Activity (Nucleic Acid [6]) | Activity (Nucleic Acid [9]) | Activity (Nucleic Acid [10]) | Activity (Nucleic Acid [11]) | Activity (Nucleic Acid [12]) | Compound | IC50 (HL-60 [3]) [µM] | IC50 (HL-60 [4]) [µM] | IC50 (HL-60 [5]) [µM] | IC50 (HeLa [7]) [µM] | IC50 (HeLa [8]) [µM]
1 | Active | Dose-dependent effect | inactive | – | – | – | – | Cc1cc(=O)oc2c(C)c3oc4cnncc4c3cc12 | 3.9 | 2.6 | 4.1 | 3.8 | 8.5
2 | Active | Dose-dependent effect | – | Active | – | – | – | CCN(CC)CCCNC(=O)c1nncc2oc3c(C)c4oc(=O)cc(C)c4cc3c12 | 2.1 | 0.9 | 2.2 | 7.4 | 11.5
3 | – | – | – | – | – | – | – | COc1c2occc2cc2ccc(=O)oc12 [METHOXSALEN] | > 20 | > 20 | – | – | –
4 | Active | – | – | – | – | – | – | Cc1cc(=O)oc2c(C)c3oc4c(C(=O)NCCCN(C)C)nnc(C(=O)NCCCN(C)C)c4c3cc12 | 3.8 | 0.61 | 2.6 | 3.7 | 11.5
5 | Active | – | – | – | – | – | – | Cc1cc(=O)oc2c(C)c3oc4c(C(=O)NCCN(C)C)nnc(C(=O)NCCN(C)C)c4c3cc12 | 0.9 | 0.41 | 1.3 | 2.4 | 11.9
6 | – | – | – | – | Active | – | – | COc1cc(NS(C)(=O)=O)ccc1Nc1c2ccccc2nc2ccccc12 | – | – | – | – | –
7 | Active | Dose-dependent effect | – | – | Active | Active | inactive | CCN(CC)CCCNC(=O)c1nnc(C(=O)NCCCN(CC)CC)c2c1oc1c(C)c3oc(=O)cc(C)c3cc12 | 0.9 | 0.37 | 0.8 | 3.5 | 14.7
8 | Active | – | – | – | – | – | – | CCN(CC)CCNC(=O)c1nnc(C(=O)NCCN(CC)CC)c2c1oc1c(C)c3oc(=O)cc(C)c3cc12 | 1.2 | 0.57 | 3.5 | 4.4 | 17.2
